Reference: ChEMBL document CHEMBL1201862, “PubChem BioAssay data set” (2004)
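Exposure lasted 48 hours, with cells grown in 96-well plates and compounds tested at five concentrations. GI50 = concentration required for 50% inhibition of growth.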 Active and inactive are the calls of the source. No stated cut-off is given here; in the data, active = GI50 up to about 1.1 µM and inactive = higher.

Columns and labels:
Assay in all cases: DTP human tumour cell line panel, 48 h
M19-MEL = tested on: M19-MEL
NCI-H522 = tested on: NCI-H522
DMS-114 = tested on: DMS-114
CAKI-1 = tested on: CAKI-1
UO-31 = tested on: UO-31
CCRF-CEM = tested on: CCRF-CEM
HOP-92 = tested on: HOP-92
UACC-257 = tested on: UACC-257
Malme-3M = tested on: Malme-3M
EKVX = tested on: EKVX
SK-MEL-2 = tested on: SK-MEL-2
SR = tested on: SR
SF-539 = tested on: SF-539
NCI-H226 = tested on: NCI-H226
OVCAR-3 = tested on: OVCAR-3
TK-10 = tested on: TK-10
HOP-18 = tested on: HOP-18
KM-20L2 = tested on: KM-20L2
SNB-75 = tested on: SNB-75
HOP-62 = tested on: HOP-62
DLD-1 = tested on: DLD-1
OVCAR-5 = tested on: OVCAR-5
SK-MEL-28 = tested on: SK-MEL-28
HL-60 = tested on: HL-60
SNB-78 = tested on: SNB-78
HCC 2998 = tested on: HCC 2998
ACHN = tested on: ACHN
NCI-H460 = tested on: NCI-H460
UACC-62 = tested on: UACC-62
LOX IMVI = tested on: LOX IMVI
RXF 631 = tested on: RXF 631
SN12C = tested on: SN12C
RPMI-8226 = tested on: RPMI-8226
SK-OV-3 = tested on: SK-OV-3
OVCAR-4 = tested on: OVCAR-4
HT-29 = tested on: HT-29
IGROV-1 = tested on: IGROV-1
HCT-116 = tested on: HCT-116
SNB-19 = tested on: SNB-19
HCT-15 = tested on: HCT-15
NCI-H23 = tested on: NCI-H23
COLO 205 = tested on: COLO 205
KM12 = tested on: KM12
K562 = tested on: K562
M14 = tested on: M14
SF-295 = tested on: SF-295
U-251 = tested on: U-251
SF-268 = tested on: SF-268
RXF 393 = tested on: RXF 393
LXFL 529 = tested on: LXFL 529
SW-620 = tested on: SW-620
MOLT-4 = tested on: MOLT-4
786-0 = tested on: 786-0
A549 = tested on: A549
DMS-273 = tested on: DMS-273
A498 = tested on: A498
SK-MEL-5 = tested on: SK-MEL-5
XF498 = tested on: XF498
OVCAR-8 = tested on: OVCAR-8

## COc1ccc(NC(=O)CC/C(CC(=O)C(C)(C)C)=N\NC(=O)C(=O)NN)cc1
M19-MEL
  GI50: > 100 µM (inactive)
NCI-H522
  GI50: 44.2 µM (inactive)
DMS-114
  GI50: > 100 µM (inactive)
CAKI-1
  GI50: > 100 µM (inactive)
UO-31
  GI50: > 100 µM (inactive)
CCRF-CEM
  GI50: > 100 µM (inactive)
HOP-92
  GI50: 56.5 µM (inactive)
UACC-257
  GI50: > 100 µM (inactive)
Malme-3M
  GI50: > 100 µM (inactive)
EKVX
  GI50: > 100 µM (inactive)
SK-MEL-2
  GI50: > 100 µM (inactive)
SR
  GI50: > 100 µM (inactive)
SF-539
  GI50: > 100 µM (inactive)
NCI-H226
  GI50: > 100 µM (inactive)
OVCAR-3
  GI50: > 100 µM (inactive)
TK-10
  GI50: > 100 µM (inactive)
HOP-18
  GI50: > 100 µM (inactive)
KM-20L2
  GI50: > 100 µM (inactive)
SNB-75
  GI50: > 100 µM (inactive)
HOP-62
  GI50: > 100 µM (inactive)
DLD-1
  GI50: > 100 µM (inactive)
OVCAR-5
  GI50: > 100 µM (inactive)
SK-MEL-28
  GI50: > 100 µM (inactive)
HL-60
  GI50: > 100 µM (inactive)
SNB-78
  GI50: > 100 µM (inactive)
HCC 2998
  GI50: > 100 µM (inactive)
ACHN
  GI50: > 100 µM (inactive)
NCI-H460
  GI50: > 100 µM (inactive)
UACC-62
  GI50: > 100 µM (inactive)
LOX IMVI
  GI50: > 100 µM (inactive)
RXF 631
  GI50: > 100 µM (inactive)
SN12C
  GI50: > 100 µM (inactive)
RPMI-8226
  GI50: > 100 µM (inactive)
SK-OV-3
  GI50: > 100 µM (inactive)
OVCAR-4
  GI50: > 100 µM (inactive)
HT-29
  GI50: > 100 µM (inactive)
IGROV-1
  GI50: > 100 µM (inactive)
HCT-116
  GI50: > 100 µM (inactive)
SNB-19
  GI50: > 100 µM (inactive)
HCT-15
  GI50: > 100 µM
NCI-H23
  GI50: > 100 µM (inactive)
COLO 205
  GI50: > 100 µM (inactive)
KM12
  GI50: > 100 µM (inactive)
K562
  GI50: > 100 µM (inactive)
M14
  GI50: > 100 µM (inactive)
SF-295
  GI50: > 100 µM (inactive)
U-251
  GI50: > 100 µM (inactive)
SF-268
  GI50: > 100 µM (inactive)
RXF 393
  GI50: > 100 µM (inactive)
LXFL 529
  GI50: > 100 µM (inactive)
SW-620
  GI50: > 100 µM (inactive)
MOLT-4
  GI50: > 100 µM (inactive)
786-0
  GI50: > 100 µM (inactive)
A549
  GI50: > 100 µM (inactive)
DMS-273
  GI50: > 100 µM (inactive)
A498
  GI50: > 100 µM (inactive)
SK-MEL-5
  GI50: > 100 µM (inactive)

## COC(=O)C1=CC2C(=O)OC1CC2C#N (centres undefined)
NCI-H522
  GI50: > 100 µM (inactive)
DMS-114
  GI50: > 100 µM (inactive)
CAKI-1
  GI50: > 100 µM (inactive)
UO-31
  GI50: > 100 µM (inactive)
CCRF-CEM
  GI50: > 100 µM (inactive)
HOP-92
  GI50: > 100 µM (inactive)
UACC-257
  GI50: > 100 µM (inactive)
Malme-3M
  GI50: > 100 µM (inactive)
SR
  GI50: > 100 µM (inactive)
SF-539
  GI50: > 100 µM (inactive)
NCI-H226
  GI50: > 100 µM (inactive)
OVCAR-3
  GI50: > 100 µM (inactive)
TK-10
  GI50: > 100 µM (inactive)
HOP-18
  GI50: > 100 µM (inactive)
KM-20L2
  GI50: > 100 µM (inactive)
SNB-75
  GI50: > 100 µM (inactive)
HOP-62
  GI50: > 100 µM (inactive)
DLD-1
  GI50: > 100 µM (inactive)
SK-MEL-28
  GI50: > 100 µM (inactive)
HL-60
  GI50: > 100 µM (inactive)
SNB-78
  GI50: > 100 µM (inactive)
HCC 2998
  GI50: > 100 µM (inactive)
ACHN
  GI50: > 100 µM (inactive)
NCI-H460
  GI50: > 100 µM (inactive)
UACC-62
  GI50: > 100 µM (inactive)
LOX IMVI
  GI50: > 100 µM (inactive)
XF498
  GI50: > 100 µM (inactive)
SN12C
  GI50: > 100 µM (inactive)
RPMI-8226
  GI50: > 100 µM (inactive)
SK-OV-3
  GI50: > 100 µM (inactive)
OVCAR-4
  GI50: > 100 µM (inactive)
HT-29
  GI50: > 100 µM (inactive)
IGROV-1
  GI50: > 100 µM (inactive)
HCT-116
  GI50: > 100 µM (inactive)
SNB-19
  GI50: > 100 µM (inactive)
NCI-H23
  GI50: > 100 µM (inactive)
COLO 205
  GI50: > 100 µM (inactive)
KM12
  GI50: > 100 µM (inactive)
K562
  GI50: > 100 µM (inactive)
M14
  GI50: > 100 µM (inactive)
SF-295
  GI50: > 100 µM (inactive)
U-251
  GI50: > 100 µM (inactive)
SF-268
  GI50: > 100 µM (inactive)
OVCAR-8
  GI50: > 100 µM (inactive)
LXFL 529
  GI50: > 100 µM (inactive)
SW-620
  GI50: > 100 µM (inactive)
MOLT-4
  GI50: > 100 µM (inactive)
786-0
  GI50: > 100 µM (inactive)
A549
  GI50: > 100 µM (inactive)
DMS-273
  GI50: > 100 µM (inactive)
A498
  GI50: > 100 µM (inactive)
SK-MEL-5
  GI50: > 100 µM (inactive)
